The text below walks through data of ChEMBL document CHEMBL5032490, “Neuroactive Type-A γ-Aminobutyric Acid Receptor Allosteric Modulator Steroids from the Hypobranchial Gland of Marine Mollusk, Conus geographus” (J Med Chem, 2021).

Activity calls are given as the source filed them.

Test [1] deals with Mus musculus. Put plainly: Antinociceptive activity in mouse assessed as total number of responses at 2 to 50 mg/kg, ip by Von Frey test. Type of test: functional, organism-based. The note with it: dose 2-50 mg/kg.
Test [2] concerns the target T1, GABA-A receptor; alpha-3/beta-3/gamma-2 (Homo sapiens, UniProt P18507+P28472+P34903).
T1 sequence (P18507 whole entry): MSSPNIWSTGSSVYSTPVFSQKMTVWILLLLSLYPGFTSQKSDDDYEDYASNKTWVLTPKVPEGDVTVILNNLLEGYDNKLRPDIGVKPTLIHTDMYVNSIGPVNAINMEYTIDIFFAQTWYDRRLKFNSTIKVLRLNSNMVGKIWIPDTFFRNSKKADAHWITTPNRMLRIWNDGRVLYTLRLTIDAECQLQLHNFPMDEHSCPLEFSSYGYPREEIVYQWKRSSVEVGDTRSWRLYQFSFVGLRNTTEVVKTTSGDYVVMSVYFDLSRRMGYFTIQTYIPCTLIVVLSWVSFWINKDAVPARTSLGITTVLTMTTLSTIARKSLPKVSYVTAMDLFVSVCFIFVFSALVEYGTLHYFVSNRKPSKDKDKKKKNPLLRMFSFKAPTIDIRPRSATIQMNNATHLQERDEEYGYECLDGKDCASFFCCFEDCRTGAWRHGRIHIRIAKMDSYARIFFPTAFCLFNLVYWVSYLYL
T1 sequence (P28472 whole entry): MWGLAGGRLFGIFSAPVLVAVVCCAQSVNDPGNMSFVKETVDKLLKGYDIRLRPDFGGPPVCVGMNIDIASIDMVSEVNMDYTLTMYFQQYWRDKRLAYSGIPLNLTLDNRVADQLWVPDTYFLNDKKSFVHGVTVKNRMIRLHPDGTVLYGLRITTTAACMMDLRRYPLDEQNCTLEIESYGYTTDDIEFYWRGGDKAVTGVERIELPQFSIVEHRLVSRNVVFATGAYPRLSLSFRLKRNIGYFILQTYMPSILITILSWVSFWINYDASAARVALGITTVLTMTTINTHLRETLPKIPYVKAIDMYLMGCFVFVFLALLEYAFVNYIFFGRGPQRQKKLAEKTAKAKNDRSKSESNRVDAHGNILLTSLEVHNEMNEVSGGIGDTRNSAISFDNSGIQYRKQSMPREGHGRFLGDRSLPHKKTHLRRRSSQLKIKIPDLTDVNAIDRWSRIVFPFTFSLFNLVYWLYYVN
T1 sequence (P34903 whole entry): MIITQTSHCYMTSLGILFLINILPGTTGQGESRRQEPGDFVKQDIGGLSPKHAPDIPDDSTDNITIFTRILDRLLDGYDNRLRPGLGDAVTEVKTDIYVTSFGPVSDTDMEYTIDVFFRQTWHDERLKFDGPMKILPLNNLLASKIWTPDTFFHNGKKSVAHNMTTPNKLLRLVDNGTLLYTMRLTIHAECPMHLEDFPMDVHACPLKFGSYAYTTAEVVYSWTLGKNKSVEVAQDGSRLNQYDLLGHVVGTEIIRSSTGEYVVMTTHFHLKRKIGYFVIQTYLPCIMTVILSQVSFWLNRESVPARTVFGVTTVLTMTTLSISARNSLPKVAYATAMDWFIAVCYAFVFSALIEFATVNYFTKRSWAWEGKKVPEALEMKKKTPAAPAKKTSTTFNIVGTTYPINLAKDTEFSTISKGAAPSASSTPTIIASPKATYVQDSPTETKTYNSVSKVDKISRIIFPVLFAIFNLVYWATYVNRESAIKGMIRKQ
Put plainly: Negative allosteric modulation activity at human GABAA alpha3beta3gamma2 stably expressed in HEK cells by whole cell patch clamp method. The class given is cell-based.

For test [3], the system named is Neuron. In words: Negative allosteric modulation of mouse GABA receptor in mouse C-low-threshold mechanoreceptive DRG neurons assessed as inhibition of KCl-induced response at 40 uM. The class given is tissue-based. Particulars: filed as negative allosteric modulator.
A short description of test [4]: Induction of ATP and Kcl-induced increase in cytosolic Ca2+ ion concentration mouse peptidergic nociceptive DRG neuron assessed as neuron population at 10 uM measured after 1 hr by Fura2AM dye based fluorescence microscopic analysis. The class given is functional.
Test [5] has as its system Mus musculus. Put plainly: Antinociception activity in mouse model assessed as reduction in thermal hypersensitivity at 2 to 50 mg/kg, ip by hot plate test. The class given is functional, organism-based. Particulars: dose 2-50 mg/kg. On the technique in general: Hot-plate and tail-flick tests time the reaction to a heat stimulus.
The target of test [6] is T2, GABA-A receptor; alpha-1/beta-3/gamma-2 (Homo sapiens, UniProt P14867+P18507+P28472).
T2 sequence (P14867 whole entry): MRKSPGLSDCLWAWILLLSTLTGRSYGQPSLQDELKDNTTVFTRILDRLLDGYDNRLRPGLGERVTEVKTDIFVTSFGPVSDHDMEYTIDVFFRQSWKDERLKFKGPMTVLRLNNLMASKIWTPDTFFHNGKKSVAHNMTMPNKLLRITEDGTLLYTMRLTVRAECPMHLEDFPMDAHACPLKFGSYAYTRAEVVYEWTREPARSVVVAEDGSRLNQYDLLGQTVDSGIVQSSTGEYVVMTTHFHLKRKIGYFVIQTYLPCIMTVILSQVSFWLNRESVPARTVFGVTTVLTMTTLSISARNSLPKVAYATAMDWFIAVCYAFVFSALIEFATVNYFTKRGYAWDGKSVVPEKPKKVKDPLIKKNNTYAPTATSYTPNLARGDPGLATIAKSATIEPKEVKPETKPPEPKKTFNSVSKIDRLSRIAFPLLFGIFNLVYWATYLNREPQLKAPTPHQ
T2 sequence (P18507 whole entry): T1 sequence (P18507 whole entry)
T2 sequence (P28472 whole entry): T1 sequence (P28472 whole entry)
In words: Negative allosteric modulation activity at human GABAA alpha1beta3gamma2 stably expressed in HEK cells by whole cell patch clamp method. The class given is cell-based. (Patch clamp records ionic current or voltage across a cell membrane.)

Test [7] deals with Mus musculus. In words: Antinociceptive activity in C57BL6 mouse model of inflammatory pain assessed as total number of responses during second phase at 2 to 50 mg/kg, ip administered by formalin test. Type of test: functional, organism-based. Particulars: dose 2-50 mg/kg.
Test [8] deals with Neuron. In words: Negative allosteric modulation of mouse GABA receptor in mouse C-low-threshold mechanoreceptive DRG neurons assessed as inhibition of KCl-induced response at 10 uM. The note with it: filed as negative allosteric modulator. The class given is tissue-based.
Test [9] in a line: Induction of ATP and Kcl-induced increase in cytosolic Ca2+ ion concentration mouse […] assessed as neuron population at 10 uM measured after 1 hr by Fura2AM dye based fluorescence microscopic analysis. Type of test: functional.
Test [10] is described as follows: Reduction of ATP and Kcl-induced increase in cytosolic Ca2+ ion concentration mouse non-peptidergic nociceptive DRG neuron assessed as neuron population at 10 uM measured after 1 hr by Fura2AM dye based fluorescence microscopic analysis. Type of test: functional. Details: scale not given: the % may be the effect or the level left.
The nature of test [11]: Reduction of ATP and Kcl-induced increase in cytosolic Ca2+ ion concentration mouse […] assessed as neuron population at 10 uM measured after 1 hr by Fura2AM dye based fluorescence microscopic analysis. The class given is functional. More on the design: scale not given: the % may be the effect or the level left.
The test system of test [12] is Neuron. In words: Negative allosteric modulation of human GABA receptor expressed in mouse DRG neurons assessed as inhibition of 500 nM GABA-induced response at 0.5 uM. Type of test: tissue-based. Particulars: filed as negative allosteric modulator.
Test [13] can be described thus: Induction of cytosolic calcium ion concentration in mouse peptidergic nociceptive DRG neuron at 10 uM measured after 1 hr by Fura2AM dye based fluorescence microscopic analysis. The class given is functional.

Take `CC(C)CCC[C@@H](C)[C@H]1CC[C@H]2[C@@H]3C(=O)C=C4C=CCC[C@]4(C)[C@H]3CC[C@]12C`: the outcome in the test on Mus musculus [1], in the test with Neuron [3], in the test with Mus musculus [5], in the test on Neuron [8] and with Neuron [12] was Active. Besides, the IC50 – broadly, the concentration that gives 50% inhibition – in [2] stood at 5.5 µM; in test [6] it was 21 µM. In addition, the Activity was 56% in [4]; 4% in test [9]; 9% in [10]; 14% in test [11]; 33% in [13]. In addition, the result in the test on Mus musculus [7] was inactive.
